Source: BindingDB's records for doi:10.1021/jm00080a018 (Toyo Jozo, 1992)

Molecular target: Adenosylhomocysteinase (Oryctolagus cuniculus)
Assay: Inhibitory effect against S-adenosyl-L-homocysteine hydrolase of rabbit erythrocyte.

| IC50 | SMILES |
| --- | --- |
| > 35.4 µM | Nc1ncnc2c1ncn2[C@@H]1C=C(CCl)[C@@H](O)[C@H]1O |
| > 36 µM | COCC1=C[C@@H](n2cnc3c(N)ncnc32)[C@H](O)[C@@H]1O |
| > 37.7 µM | Nc1ncnc2c1ncn2[C@@H]1C=C(CF)[C@@H](O)[C@H]1O |
| > 34 µM | CSCC1=C[C@@H](n2cnc3c(N)ncnc32)[C@H](O)[C@@H]1O |
| > 38.5 µM | C=CC1=C[C@@H](n2cnc3c(N)ncnc32)[C@H](O)[C@@H]1O |

| SMILES | IC50 |
| --- | --- |
| CC1=C[C@@H](n2cnc3c(N)ncnc32)[C@H](O)[C@@H]1O | > 40.4 µM |
